IC50 data for 28 compounds are collected here from patent publication US9040530B2, “1,2,4-triazine-6-carboxamide kinase inhibitors” (Portola Pharmaceuticals, Inc., priority 2012, dated 2015).

In the experiment the target is T1, full length active recombinant SYK enzyme (Homo sapiens, UniProt P43405).
T1 construct: full length active recombinant SYK enzyme (Millipore, Calif.); purchased Millipore
The experiment can be described thus: Inhibition of Syk tyrosine phosphorylation activity (LANCE TR-FRET kinase assay). The experiment is classed as biochemical. The note with it: 1 nM active SYK enzyme, 550 nM SYK-substrate, 100 μM ATP, 1 hour at room temperature. Here is the method:
The in vitro and in vivo human Syk activities of the inventive compounds can be determined by various procedures known in the art, such as a test for their ability to inhibit the activity of human plasma Syk.
Inhibition of Syk Tyrosine Phosphorylation Activity
SYK tyrosine phosphorylation activity is measured using the LANCE™ Technology developed by Perkin Elmer Life and Analytical Sciences (Boston, Mass.). LANCE™ refers to homogeneous time resolved fluorometry applications using techniques such as time-resolved fluorescence resonance energy transfer assay (TR-FRET) (see generally for procedures in Perkin Elmer Application Note—How to Optimize a Tyrosine Kinase Assay Using Time Resolved Fluorescence-Based LANCE Detection, wwww.perkinelmer.com/lifesciences). The assay principle involves detection of a phosphorylated substrate using energy transfer from a phosphospecific europium-labeled antibody to streptavidin-allophycocyanin as an acceptor.
Molecules are reconstituted in 30% DMSO and serially diluted 1:3 with the final dilution containing DMSO in the absence of the candidate molecule. The final DMSO concentration in the assay is 3%. Kinase assays are performed as a two part reaction. […] The second reaction involves termination of the kinase reaction and the simultaneous addition of the detection reagents-europium-labeled anti-phosphotyrosine reagent (Eu-W1024-PY100, Perkin Elmer, Boston, Mass.) and Streptavidin-Allophycocyanin detection reagent (SA-APC, Prozyme, CA). The kinase reaction is performed in a black U-bottom 96-well microtitre plate. […] The reaction is allowed to proceed for 1 hour at room temperature. The quench buffer contains 100 mM Tris pH 7.5, 300 mM […], 20 mM EDTA, 0.02% Brij35, and 0.5% BSA. The detection reagents are added to the reaction mixture at the following dilutions-1:500 for Eu-W1024-PY100 and 1:250 for SA-APC. The kinase reaction is terminated by the addition of 50 μL quench buffer containing the detection reagents. The detection is allowed to proceed for 1 hr at room temperature. Detection of the phosphorlated substrate in the absence and presence of inhibitors is measured in the TR-FRET instrument, Analyst HT (Molecular Probes, Sunnyvale, Calif.) and the condition for measurements are set up using CriterionHost Release 2.0 (Molecular Probes, Sunnyvale, Calif.). […] IC50s were derived by non-linear regression analysis.

For the compound `NC(=O)c1nnc(N[C@@H]2CCCC[C@@H]2N)nc1Nc1ccc(Cl)cc1` [Example 27, 3-(((1R,2S)-2-aminocyclohexyl)amino)-5-((4-chlorophenyl)amino)-1,2,4-triazine-6-carboxamide], the IC50 was 1 to 10 nM. For `CCC(=O)N1CCC(c2ccc(Nc3nc(N[C@@H]4CCCC[C@@H]4N)nnc3C(N)=O)cc2)CC1` [Example 28, 3-(((1R,2S)-2-aminocyclohexyl)amino)-5-((4-(1-propionylpiperidin-4-yl)phenyl)amino)-1,2,4-triazine-6-carboxamide] the value was 1 to 10 nM; for `C[N+]1([O-])CCC(c2ccc(Nc3nc(N[C@@H]4CCCC[C@@H]4N)nnc3C(N)=O)cc2)CC1` (stereo partly drawn) [Example 29, 4-(4-((3-(((1R,2S)-2-aminocyclohexyl)amino)-6-carbamoyl-1,2,4-triazin-5-yl)amino)phenyl)-1-methylpiperidine 1-oxide], 10 to 100 nM; for `NC(=O)c1nnc(N[C@@H]2CCCC[C@@H]2N)nc1Nc1ccc(N2CCOCC2)c(F)c1` [Example 30, 3-(((1R,2S)-2-aminocyclohexyl)amino)-5-((3-fluoro-4-morpholinophenyl)amino)-1,2,4-triazine-6-carboxamide], 1 to 10 nM. For `CC[C@@H](Nc1nnc(C(N)=O)c(Nc2ccc(N3CCOCC3)c(F)c2)n1)C(N)=O` [Example 31, (R)-3-((1-amino-1-oxobutan-2-yl)amino)-5-((3-fluoro-4-morpholinophenyl)amino)-1,2,4-triazine-6-carboxamide] the value was 10 to 100 nM; for `NC(=O)c1nnc(N[C@@H]2CCCC[C@@H]2N)nc1Nc1ccc([N+]2([O-])CCCCC2)c(F)c1` [Example 32, 1-(4-((3-(((1R,2S)-2-aminocyclohexyl)amino)-6-carbamoyl-1,2,4-triazin-5-yl)amino)-2-fluorophenyl)piperidine 1-oxide], 10 to 100 nM.

As for `NC(=O)c1nnc(N[C@@H]2CCCC[C@@H]2N)nc1Nc1ccc(N2CCOCC2=O)c(F)c1` [Example 33, 3-(((1R,2S)-2-aminocyclohexyl)amino)-5-((3-fluoro-4-(3-oxomorpholino)phenyl)amino)-1,2,4-triazine-6-carboxamide], the IC50 fell in the range of 100 to 1000 nM. For `NC(=O)c1nnc(N[C@@H]2CCCC[C@@H]2N)nc1Nc1ccc(N2CCOCC2=O)cc1` [Example 34, 3-(((1R,2S)-2-aminocyclohexyl)amino)-5-((4-(3-oxomorpholino)phenyl)amino)-1,2,4-triazine-6-carboxamide] the value was 100 to 1000 nM. Take `NC(=O)c1nnc(N[C@@H]2CCCC[C@@H]2N)nc1Nc1cnn2ccccc12` [Example 35, 3-(((1R,2S)-2-aminocyclohexyl)amino)-5-(pyrazolo[1,5-a]pyridin-3-ylamino)-1,2,4-triazine-6-carboxamide]: the IC50 lay in the range of 1 to 10 nM.

As for `NC(=O)c1nnc(N[C@@H]2CCCC(F)(F)[C@@H]2N)nc1Nc1cnn2ccccc12` [Example 36, 3-(((1R,2R)-2-amino-3,3-difluorocyclohexyl)amino)-5-(pyrazolo[1,5-a]pyridin-3-ylamino)-1,2,4-triazine-6-carboxamide], the IC50 was 10 to 100 nM. The figure for `NC(=O)c1nnc(N[C@@H]2CCCC[C@@H]2N)nc1Nc1csc2ncccc12` [Example 37, 3-(((1R,2S)-2-aminocyclohexyl)amino)-5-(thieno[2,3-b]pyridin-3-ylamino)-1,2,4-triazine-6-carboxamide] is 1 to 10 nM; for `NC(=O)c1nnc(N[C@@H]2CCCC(F)(F)[C@@H]2N)nc1Nc1csc2ncccc12` [Example 38, 3-(((1R,2R)-2-amino-3,3-difluorocyclohexyl)amino)-5-(thieno[2,3-b]pyridin-3-ylamino)-1,2,4-triazine-6-carboxamide] it is 10 to 100 nM. The figure for `CC[C@@H](Nc1nnc(C(N)=O)c(Nc2csc3ncccc23)n1)C(N)=O` [Example 39, (R)-3-((1-amino-1-oxobutan-2-yl)amino)-5-(thieno[2,3-b]pyridin-3-ylamino)-1,2,4-triazine-6-carboxamide] is 1 to 10 nM; for `NC(=O)c1nnc(N[C@@H]2CCCC[C@@H]2N)nc1Nc1cccc2ncsc12` [Example 40, 3-(((1R,2S)-2-aminocyclohexyl)amino)-5-(benzo[d]thiazol-7-ylamino)-1,2,4-triazine-6-carboxamide] it is 10 to 100 nM; for `NC(=O)c1nnc(N[C@@H]2CCCC[C@@H]2N)nc1Nc1ccc2scnc2c1` [Example 41, 3-(((1R,2S)-2-aminocyclohexyl)amino)-5-(benzo[d]thiazol-5-ylamino)-1,2,4-triazine-6-carboxamide] it is 1 to 10 nM. The figure for `NC(=O)c1nnc(N[C@@H]2CCCC[C@@H]2N)nc1Nc1ccc2ncsc2c1` [Example 42, 3-(((1R,2S)-2-aminocyclohexyl)amino)-5-(benzo[d]thiazol-6-ylamino)-1,2,4-triazine-6-carboxamide] is 1 to 10 nM. `NC(=O)c1nnc(N[C@@H]2CCCC(F)(F)[C@@H]2N)nc1Nc1ccc2ncsc2c1` [Example 43, 3-(((1R,2R)-2-amino-3,3-difluorocyclohexyl)amino)-5-(benzo[d]thiazol-6-ylamino)-1,2,4-triazine-6-carboxamide]: the IC50 fell in the range of 10 to 100 nM.

For the compound `NC(=O)c1nnc(N[C@@H]2CCCC[C@@H]2N)nc1Nc1ccc2nccn2c1` [Example 44, 3-(((1R,2S)-2-aminocyclohexyl)amino)-5-(imidazo[1,2-a]pyridin-6-ylamino)-1,2,4-triazine-6-carboxamide], the IC50 lay within 10 to 100 nM.

As to `NC(=O)c1nnc(N[C@@H]2CCCC[C@@H]2N)nc1Nc1cnc2ncccc2c1` [Example 45, 5-((1,8-naphthyridin-3-yl)amino)-3-(((1R,2S)-2-aminocyclohexyl)amino)-1,2,4-triazine-6-carboxamide], the IC50 lay in the range of 10 to 100 nM. Consider `NC(=O)c1nnc(N[C@@H]2CCCC[C@@H]2N)nc1Nc1cccc2ncccc12` [Example 46, 3-(((1R,2S)-2-aminocyclohexyl)amino)-5-(quinolin-5-ylamino)-1,2,4-triazine-6-carboxamide], for which the IC50 lay within 1 to 10 nM.

Regarding `NC(=O)c1nnc(N[C@@H]2CCCC[C@@H]2N)nc1Nc1ccc2ncccc2c1` [Example 47, 3-(((1R,2S)-2-aminocyclohexyl)amino)-5-(quinolin-6-ylamino)-1,2,4-triazine-6-carboxamide], the IC50 was 1 to 10 nM. For `NC(=O)c1nnc(N[C@@H]2CCCC[C@@H]2N)nc1Nc1ccc2c(ccc[n+]2[O-])c1` [Example 48, 6-((3-(((1R,2S)-2-aminocyclohexyl)amino)-6-carbamoyl-1,2,4-triazin-5-yl)amino)quinoline 1-oxide] the value was 10 to 100 nM.

`NC(=O)c1nnc(N[C@@H]2CCCC(F)(F)[C@@H]2N)nc1Nc1ccc2ncccc2c1` [Example 49, 3-(((1R,2R)-2-amino-3,3-difluorocyclohexyl)amino)-5-(quinolin-6-ylamino)-1,2,4-triazine-6-carboxamide]: the IC50 lay in the range of 10 to 100 nM. The figure for `NC(=O)c1nnc(N[C@@H]2CCCC(F)(F)[C@@H]2N)nc1Nc1ccc2c(ccc[n+]2[O-])c1` [Example 50, 6-((3-(((1R,2R)-2-amino-3,3-difluorocyclohexyl)amino)-6-carbamoyl-1,2,4-triazin-5-yl)amino)quinoline 1-oxide] is 100 to 1000 nM; for `CC[C@@H](Nc1nnc(C(N)=O)c(Nc2ccc3ncccc3c2)n1)C(N)=O` [Example 51, (R)-3-((1-amino-1-oxobutan-2-yl)amino)-5-(quinolin-6-ylamino)-1,2,4-triazine-6-carboxamide] it is 1 to 10 nM. For `CC(C)[C@@H](Nc1nnc(C(N)=O)c(Nc2ccc3ncccc3c2)n1)C(N)=O` [Example 52, (R)-3-((1-amino-3-methyl-1-oxobutan-2-yl)amino)-5-(quinolin-6-ylamino)-1,2,4-triazine-6-carboxamide] the value was 10 to 100 nM. The figure for `CC(C)C[C@@H](Nc1nnc(C(N)=O)c(Nc2ccc3ncccc3c2)n1)C(N)=O` [Example 53, (R)-3-((1-amino-4-methyl-1-oxopentan-2-yl)amino)-5-(quinolin-6-ylamino)-1,2,4-triazine-6-carboxamide] is 1 to 10 nM; for `CC(C)C[C@@H](Nc1nnc(C(N)=O)c(Nc2ccc3c(ccc[n+]3[O-])c2)n1)C(N)=O` [Example 54, (R)-6-((3-((1-amino-4-methyl-1-oxopentan-2-yl)amino)-6-carbamoyl-1,2,4-triazin-5-yl)amino)quinoline 1-oxide] it is 10 to 100 nM.
